Data from ChEMBL document CHEMBL2390902, “Discovery of 1-(1,3,5-triazin-2-yl)piperidine-4-carboxamides as inhibitors of soluble epoxide hydrolase” (Bioorg Med Chem Lett, 2013).

Legend:
Epoxide hydrolase 1 = Epoxide hydrolase 1 (Homo sapiens, UniProt P07099)
[1] = target: Voltage-dependent L-type calcium channel subunit alpha-1C (Homo sapiens, UniProt Q13936); assay: Inhibition of CaV1.2 (unknown origin)
[2] = target: Neuromedin-K receptor (Homo sapiens) (UniProt P29371); assay: Inhibition of human NK3 receptor at 1 uM relative to control
[3] = target: Sodium-dependent dopamine transporter (Homo sapiens) (UniProt Q01959); assay: Inhibition of human dopamine transporter at 1 uM relative to control
Rattus norvegicus [4] = assay: In vivo inhibition of soluble epoxide hydrolase in rat assessed as increase in leukotoxin/leukotoxin diol ratio in plasma at 0.2 to 20 mg/kg, po measured after 4 hrs relative to vehicle-treated control; assay type: functional; settings: dose mg/kg 0.2-20
[5] = target: 5-hydroxytryptamine receptor 1B (Homo sapiens) (UniProt P28222); assay: Inhibition of human 5-HT1B receptor at 1 uM relative to control
Homo sapiens [6] = organism: Homo sapiens; assay: Inhibition of human BZD receptor at 1 uM relative to control
Rattus norvegicus [7] = assay: Dose normalized AUC in rat at 2 mg/kg, iv; assay type: ADME, organism-based; design: dose 2 mg/kg, route intravenous; settings: in vivo
[8] = target: Histamine H1 receptor (Homo sapiens) (UniProt P35367); assay: Inhibition of human histamine H1 receptor at 1 uM relative to control
Homo sapiens [9] = organism: Homo sapiens; assay: Inhibition of human chloride channel at 1 uM relative to control
Homo sapiens [10] = organism: Homo sapiens; assay: Inhibition of human SKCa channel at 1 uM relative to control
[11] = target: Melatonin receptor type 1A (Homo sapiens) (UniProt P48039); assay: Inhibition of human MT1 receptor at 1 uM relative to control
[12] = Fraction unbound in rat plasma; assay type: ADME, cell-free
Homo sapiens [13] = organism: Homo sapiens; assay: Inhibition of human sigma receptor at 1 uM relative to control
[14] = target: Muscarinic acetylcholine receptor M4 (Homo sapiens) (UniProt P08173); assay: Inhibition of human M4 receptor at 1 uM relative to control
[15] = target: Substance-K receptor (Homo sapiens) (UniProt P21452); assay: Inhibition of human NK2 receptor at 1 uM relative to control
[16] = target: T1, Bifunctional epoxide hydrolase 2 (Homo sapiens, UniProt P34913)
T1 sequence (P34913 whole entry): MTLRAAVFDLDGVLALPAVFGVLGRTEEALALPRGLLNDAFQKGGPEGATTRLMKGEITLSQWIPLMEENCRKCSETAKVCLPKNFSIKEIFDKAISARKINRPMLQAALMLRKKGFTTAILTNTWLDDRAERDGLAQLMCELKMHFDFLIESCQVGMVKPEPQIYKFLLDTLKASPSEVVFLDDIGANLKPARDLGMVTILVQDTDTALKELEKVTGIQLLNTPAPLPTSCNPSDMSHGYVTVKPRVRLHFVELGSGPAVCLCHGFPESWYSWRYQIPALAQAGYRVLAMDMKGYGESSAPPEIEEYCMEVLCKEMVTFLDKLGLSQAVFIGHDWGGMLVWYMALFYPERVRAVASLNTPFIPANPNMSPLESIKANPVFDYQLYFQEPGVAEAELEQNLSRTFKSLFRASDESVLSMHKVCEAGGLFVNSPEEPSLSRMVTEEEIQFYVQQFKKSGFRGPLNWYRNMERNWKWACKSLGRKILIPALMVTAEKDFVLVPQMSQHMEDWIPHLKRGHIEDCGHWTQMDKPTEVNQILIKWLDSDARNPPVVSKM
Description: Inhibition of human soluble epoxide hydrolase using PHOME as substrate assessed as formation of 6-methoxy-2-naphthaldehyde incubated for 10 mins prior to substrate addition measured with in 30 mins by fluorescence assay

[17] = target: Beta-2 adrenergic receptor (Homo sapiens) (UniProt P07550); assay: Inhibition of human beta2 receptor at 1 uM relative to control
Homo sapiens [18] = organism: Homo sapiens; assay: Inhibition of human delta2 opioid receptor at 1 uM relative to control
[19] = target: Kappa-type opioid receptor (Homo sapiens) (UniProt P41145); assay: Inhibition of human kappa opioid receptor at 1 uM relative to control
[20] = target: Type-1 angiotensin II receptor (Homo sapiens) (UniProt P30556); assay: Inhibition of human AT1 receptor at 1 uM relative to control
[21] = target: Histamine H2 receptor (Homo sapiens) (UniProt P25021); assay: Inhibition of human histamine H2 receptor at 1 uM relative to control
[22] = target: Bifunctional epoxide hydrolase 2 (Rattus norvegicus, UniProt P80299)
[23] = Oral bioavailability in rat; assay type: ADME, organism-based; settings: in vivo
[24] = target: Adenosine receptor A3 (Homo sapiens) (UniProt P0DMS8); assay: Inhibition of human adenosine A3 receptor at 1 uM relative to control
[25] = target: Neuropeptide Y receptor type 1 (Homo sapiens) (UniProt P25929); assay: Inhibition of human Y1 receptor at 1 uM relative to control
[26] = target: Sodium channel protein type 5 subunit alpha (Homo sapiens, UniProt Q14524); assay: Inhibition of NaV1.5 (unknown origin)
[27] = Plasma clearance in rat at 2 mg/kg, iv; assay type: ADME, organism-based; design: dose 2 mg/kg, route intravenous
[28] = Half life in rat at 2 mg/kg, iv; assay type: ADME, organism-based; design: dose 2 mg/kg, route intravenous; settings: in vivo
[29] = target: Muscarinic acetylcholine receptor M1 (Homo sapiens) (UniProt P11229); assay: Inhibition of human M1 receptor at 1 uM relative to control
[30] = target: D(2) dopamine receptor (Homo sapiens) (UniProt P14416); assay: Inhibition of human dopamine D2S receptor at 1 uM relative to control
[31] = target: Mu-type opioid receptor (Homo sapiens) (UniProt P35372); assay: Inhibition of human mu opioid receptor at 1 uM relative to control
[32] = target: T1, Bifunctional epoxide hydrolase 2; remark: listed apart in the source
Description: Inhibition of human soluble epoxide hydrolase overexpressed in HEK293F cells using EET as substrate assessed as formation of DHET incubated for 30 mins prior to substrate addition measured after 60 mins by ELISA

[33] = target: 5-hydroxytryptamine receptor 3A (Homo sapiens) (UniProt P46098); assay: Inhibition of human 5-HT3 receptor at 1 uM relative to control
Rattus norvegicus [34] = assay: Free maximum concentration of drug in rat at 20 mg/kg, po; assay type: ADME, organism-based; design: dose 20 mg/kg, route oral; settings: in vivo
[35] = target: C-X-C chemokine receptor type 2 (Homo sapiens) (UniProt P25025); assay: Inhibition of human CXCR2 receptor at 1 uM relative to control
[36] = target: Muscarinic acetylcholine receptor M2 (Homo sapiens) (UniProt P08172); assay: Inhibition of human M2 receptor at 1 uM relative to control
[37] = target: Sodium-dependent noradrenaline transporter (Homo sapiens) (UniProt P23975); assay: Inhibition of human norepinephrine transporter at 1 uM relative to control
[38] = target: Galanin receptor type 2 (Homo sapiens) (UniProt O43603); assay: Inhibition of human GAL2 receptor at 1 uM relative to control
[39] = Plasma clearance in rat at 1 mg/kg, iv; assay type: ADME, organism-based; design: dose 1 mg/kg, route intravenous
[40] = Cmax in rat at 2 mg/kg, po; assay type: ADME, organism-based; design: dose 2 mg/kg, route oral; settings: in vivo
[41] = target: 5-hydroxytryptamine receptor 2A (Homo sapiens) (UniProt P28223); assay: Inhibition of human 5-HT2A receptor at 1 uM relative to control
Homo sapiens [42] = organism: Homo sapiens; assay: Inhibition of human P2X receptor at 1 uM relative to control
Rattus norvegicus [43] = assay: Free maximum concentration of drug in rat at 0.2 mg/kg, po; assay type: ADME, organism-based; design: dose 0.2 mg/kg, route oral; settings: in vivo

Adenosine receptor A3 (Homo sapiens), sequence (P0DMS8 whole entry): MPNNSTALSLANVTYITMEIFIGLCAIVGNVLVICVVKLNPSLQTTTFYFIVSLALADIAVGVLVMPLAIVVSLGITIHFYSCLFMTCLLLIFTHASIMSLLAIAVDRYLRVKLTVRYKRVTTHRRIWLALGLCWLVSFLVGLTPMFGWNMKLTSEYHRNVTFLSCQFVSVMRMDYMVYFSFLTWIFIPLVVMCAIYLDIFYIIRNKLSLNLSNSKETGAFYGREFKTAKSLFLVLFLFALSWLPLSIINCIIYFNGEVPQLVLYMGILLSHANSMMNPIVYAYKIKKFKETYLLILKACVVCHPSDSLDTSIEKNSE
Muscarinic acetylcholine receptor M4 (Homo sapiens), sequence (P08173 whole entry): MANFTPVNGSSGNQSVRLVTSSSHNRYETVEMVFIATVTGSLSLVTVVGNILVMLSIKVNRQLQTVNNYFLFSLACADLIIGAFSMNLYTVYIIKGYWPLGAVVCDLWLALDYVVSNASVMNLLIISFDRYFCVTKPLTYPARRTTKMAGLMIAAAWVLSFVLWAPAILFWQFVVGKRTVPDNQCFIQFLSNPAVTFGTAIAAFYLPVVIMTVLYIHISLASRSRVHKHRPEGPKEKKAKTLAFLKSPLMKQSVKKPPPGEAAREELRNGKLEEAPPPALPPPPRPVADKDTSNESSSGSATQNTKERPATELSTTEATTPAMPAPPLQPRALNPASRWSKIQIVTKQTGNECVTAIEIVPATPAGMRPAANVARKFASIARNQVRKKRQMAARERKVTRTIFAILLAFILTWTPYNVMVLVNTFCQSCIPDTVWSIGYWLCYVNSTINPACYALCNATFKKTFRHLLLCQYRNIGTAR
C-X-C chemokine receptor type 2 (Homo sapiens), sequence (P25025 whole entry): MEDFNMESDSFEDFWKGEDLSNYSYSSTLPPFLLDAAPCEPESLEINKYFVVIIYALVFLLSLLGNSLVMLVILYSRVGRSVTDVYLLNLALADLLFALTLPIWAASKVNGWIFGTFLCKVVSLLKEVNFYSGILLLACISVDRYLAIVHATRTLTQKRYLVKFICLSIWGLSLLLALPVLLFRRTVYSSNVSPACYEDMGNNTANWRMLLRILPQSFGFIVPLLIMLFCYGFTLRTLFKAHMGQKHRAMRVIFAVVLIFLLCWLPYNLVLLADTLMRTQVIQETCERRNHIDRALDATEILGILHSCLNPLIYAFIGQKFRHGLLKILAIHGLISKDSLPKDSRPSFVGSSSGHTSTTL
Histamine H2 receptor (Homo sapiens), sequence (P25021 whole entry): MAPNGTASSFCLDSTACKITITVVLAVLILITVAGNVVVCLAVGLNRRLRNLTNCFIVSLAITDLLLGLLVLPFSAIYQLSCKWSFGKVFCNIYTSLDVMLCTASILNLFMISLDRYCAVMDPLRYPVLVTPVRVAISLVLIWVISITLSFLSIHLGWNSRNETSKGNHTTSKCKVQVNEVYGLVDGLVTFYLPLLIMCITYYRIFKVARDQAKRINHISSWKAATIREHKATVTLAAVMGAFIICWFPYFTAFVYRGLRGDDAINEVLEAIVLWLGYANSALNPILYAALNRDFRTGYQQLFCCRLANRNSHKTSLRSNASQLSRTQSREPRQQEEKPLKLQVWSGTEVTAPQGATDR
Sodium-dependent noradrenaline transporter (Homo sapiens), sequence (P23975 whole entry): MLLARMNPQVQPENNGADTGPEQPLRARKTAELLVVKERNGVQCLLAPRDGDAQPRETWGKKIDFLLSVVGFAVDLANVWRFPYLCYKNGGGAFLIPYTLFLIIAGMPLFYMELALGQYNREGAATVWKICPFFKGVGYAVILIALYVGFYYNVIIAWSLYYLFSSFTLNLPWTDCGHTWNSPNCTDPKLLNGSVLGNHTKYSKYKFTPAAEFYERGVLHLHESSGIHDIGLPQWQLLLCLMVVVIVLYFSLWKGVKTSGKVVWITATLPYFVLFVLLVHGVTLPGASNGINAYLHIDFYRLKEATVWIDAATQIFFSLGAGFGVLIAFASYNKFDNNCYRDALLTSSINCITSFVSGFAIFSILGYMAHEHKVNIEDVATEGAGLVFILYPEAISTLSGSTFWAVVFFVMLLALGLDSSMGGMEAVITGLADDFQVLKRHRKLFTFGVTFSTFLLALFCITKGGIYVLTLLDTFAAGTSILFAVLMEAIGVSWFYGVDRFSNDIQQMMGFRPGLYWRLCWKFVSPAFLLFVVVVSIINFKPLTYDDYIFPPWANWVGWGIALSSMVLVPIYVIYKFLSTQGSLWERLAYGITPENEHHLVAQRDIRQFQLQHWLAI
5-hydroxytryptamine receptor 1B (Homo sapiens), sequence (P28222 whole entry): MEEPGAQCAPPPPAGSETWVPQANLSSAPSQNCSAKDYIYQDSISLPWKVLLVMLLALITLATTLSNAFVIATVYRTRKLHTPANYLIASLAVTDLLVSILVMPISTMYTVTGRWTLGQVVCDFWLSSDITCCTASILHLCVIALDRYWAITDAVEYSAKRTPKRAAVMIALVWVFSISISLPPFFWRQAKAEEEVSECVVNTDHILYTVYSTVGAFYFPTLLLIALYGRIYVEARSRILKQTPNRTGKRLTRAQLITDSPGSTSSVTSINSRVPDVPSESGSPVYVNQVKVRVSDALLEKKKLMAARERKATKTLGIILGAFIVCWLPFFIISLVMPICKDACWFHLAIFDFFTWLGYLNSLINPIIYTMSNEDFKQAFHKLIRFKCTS
Kappa-type opioid receptor (Homo sapiens), sequence (P41145 whole entry): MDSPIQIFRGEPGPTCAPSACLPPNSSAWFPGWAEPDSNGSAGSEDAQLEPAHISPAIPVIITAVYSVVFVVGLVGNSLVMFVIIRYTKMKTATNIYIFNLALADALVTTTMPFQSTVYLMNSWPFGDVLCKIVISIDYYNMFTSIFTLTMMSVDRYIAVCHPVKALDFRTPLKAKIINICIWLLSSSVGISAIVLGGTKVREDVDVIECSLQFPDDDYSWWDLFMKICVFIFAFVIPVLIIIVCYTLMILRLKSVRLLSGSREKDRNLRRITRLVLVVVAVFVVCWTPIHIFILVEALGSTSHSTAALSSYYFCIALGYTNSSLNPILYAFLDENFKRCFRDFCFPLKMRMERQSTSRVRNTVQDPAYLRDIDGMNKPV
D(2) dopamine receptor (Homo sapiens), sequence (P14416 whole entry): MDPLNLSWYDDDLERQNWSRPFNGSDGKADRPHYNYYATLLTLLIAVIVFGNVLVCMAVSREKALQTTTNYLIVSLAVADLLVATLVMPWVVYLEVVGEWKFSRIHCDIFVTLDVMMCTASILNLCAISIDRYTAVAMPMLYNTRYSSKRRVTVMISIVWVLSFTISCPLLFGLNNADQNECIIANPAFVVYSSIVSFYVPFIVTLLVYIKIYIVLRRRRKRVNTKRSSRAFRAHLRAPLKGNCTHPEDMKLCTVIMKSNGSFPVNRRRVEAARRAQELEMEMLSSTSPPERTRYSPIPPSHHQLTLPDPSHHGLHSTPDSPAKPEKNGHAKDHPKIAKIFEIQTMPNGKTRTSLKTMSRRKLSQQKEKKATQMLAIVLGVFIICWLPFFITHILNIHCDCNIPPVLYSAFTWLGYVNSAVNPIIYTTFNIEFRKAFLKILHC
Substance-K receptor (Homo sapiens), sequence (P21452 whole entry): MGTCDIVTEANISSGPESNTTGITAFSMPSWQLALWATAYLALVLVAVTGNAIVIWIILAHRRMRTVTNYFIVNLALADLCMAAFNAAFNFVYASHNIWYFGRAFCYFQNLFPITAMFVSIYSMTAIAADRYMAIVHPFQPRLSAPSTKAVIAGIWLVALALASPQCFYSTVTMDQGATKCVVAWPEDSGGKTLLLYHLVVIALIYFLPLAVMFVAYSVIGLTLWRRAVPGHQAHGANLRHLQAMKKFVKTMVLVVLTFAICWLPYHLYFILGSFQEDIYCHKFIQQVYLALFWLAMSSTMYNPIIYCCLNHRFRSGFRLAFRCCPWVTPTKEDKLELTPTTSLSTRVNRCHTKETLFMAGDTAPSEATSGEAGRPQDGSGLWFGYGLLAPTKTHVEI
Sodium-dependent dopamine transporter (Homo sapiens), sequence (Q01959 whole entry): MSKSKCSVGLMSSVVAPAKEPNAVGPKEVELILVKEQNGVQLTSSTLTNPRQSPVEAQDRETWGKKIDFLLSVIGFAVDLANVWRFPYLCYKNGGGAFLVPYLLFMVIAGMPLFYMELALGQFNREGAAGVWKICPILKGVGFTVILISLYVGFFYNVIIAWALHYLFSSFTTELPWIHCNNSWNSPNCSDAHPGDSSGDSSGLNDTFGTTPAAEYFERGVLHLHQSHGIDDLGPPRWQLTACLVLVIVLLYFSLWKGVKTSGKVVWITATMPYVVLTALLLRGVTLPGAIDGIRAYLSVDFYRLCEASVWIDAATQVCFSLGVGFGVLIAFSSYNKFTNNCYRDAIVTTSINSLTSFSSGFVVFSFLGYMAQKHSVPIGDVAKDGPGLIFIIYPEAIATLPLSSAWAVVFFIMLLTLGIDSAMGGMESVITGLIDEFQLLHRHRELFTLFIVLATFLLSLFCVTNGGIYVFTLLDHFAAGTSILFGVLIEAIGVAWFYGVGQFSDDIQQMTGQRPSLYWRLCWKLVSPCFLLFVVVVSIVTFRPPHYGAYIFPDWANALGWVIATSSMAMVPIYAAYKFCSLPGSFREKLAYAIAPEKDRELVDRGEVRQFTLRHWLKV
Histamine H1 receptor (Homo sapiens), sequence (P35367 whole entry): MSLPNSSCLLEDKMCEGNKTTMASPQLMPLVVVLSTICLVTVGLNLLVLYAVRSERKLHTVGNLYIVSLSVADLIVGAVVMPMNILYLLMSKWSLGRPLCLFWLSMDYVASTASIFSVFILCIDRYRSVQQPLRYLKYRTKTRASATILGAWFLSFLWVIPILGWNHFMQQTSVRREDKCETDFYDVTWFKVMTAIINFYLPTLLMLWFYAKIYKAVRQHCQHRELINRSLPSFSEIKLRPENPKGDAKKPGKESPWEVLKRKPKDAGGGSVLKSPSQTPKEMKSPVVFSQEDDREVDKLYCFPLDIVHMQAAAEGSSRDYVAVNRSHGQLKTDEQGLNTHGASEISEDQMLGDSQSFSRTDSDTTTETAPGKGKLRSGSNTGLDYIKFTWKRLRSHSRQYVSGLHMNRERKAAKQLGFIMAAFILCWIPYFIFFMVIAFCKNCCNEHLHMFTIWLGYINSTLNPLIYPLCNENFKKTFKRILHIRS

## CNc1nc(C)nc(N2CCC(C(=O)NCc3ccc(Br)cc3OC(F)(F)F)CC2)n1
Epoxide hydrolase 1
  IC50: > 50000 nM
[1]
  IC50: > 10000 nM
[2]
  inhibition: < 50%
[3]
  inhibition: < 50%
Rattus norvegicus [4]
  inhibition (INH): 50%
[5]
  inhibition: < 50%
Homo sapiens [6]
  inhibition: < 50%
Rattus norvegicus [7]
  AUC/dose: 1.3 kg·h/L
[8]
  inhibition: < 50%
Homo sapiens [9]
  inhibition: < 50%
Homo sapiens [10]
  inhibition: < 50%
[11]
  inhibition: < 50%
[12]
  fraction unbound: 0.015
Homo sapiens [13]
  inhibition: < 50%
[14]
  inhibition: < 50%
[15]
  inhibition: < 50%
[16]
  IC50: 0.5 nM
[17]
  inhibition: < 50%
Homo sapiens [18]
  inhibition: < 50%
[19]
  inhibition: < 50%
[20]
  inhibition: < 50%
[21]
  inhibition: < 50%
[22]
  IC50: 2 nM
[23]
  bioavailability: 100%
[24]
  inhibition: < 50%
[25]
  inhibition: < 50%
[26]
  IC50: > 10000 nM
[27]
  clearance: 12 mL/min/kg
[28]
  half-life: 4.6 h
[29]
  inhibition: < 50%
[30]
  inhibition: < 50%
[31]
  inhibition: < 50%
[32]
  IC50: 3 nM
[33]
  inhibition: < 50%
Rattus norvegicus [34]
  fCmax: 24 nM
[35]
  inhibition: < 50%
[36]
  inhibition: < 50%
[37]
  inhibition: < 50%
[38]
  inhibition: < 50%
[39]
  clearance: 12 mL/min/kg
[40]
  Cmax: 223 nM
[41]
  inhibition: < 50%
Homo sapiens [42]
  inhibition: < 50%
Rattus norvegicus [43]
  fCmax: 0.25 nM
